# Experimental data taken from ChEMBL document CHEMBL3632504, “Discovery of 1H-pyrazolo[3,4-b]pyridines as potent dual orexin receptor antagonists (DORAs)” (Bioorg Med Chem Lett, 2015).
# Experiments:
# Homo sapiens = species on record: Homo sapiens; experiment: Selectivity ratio of Ki for human orexin 1 receptor to Ki for human orexin 2 receptor
# [1] = Octanol/water partition coefficient, logP of the compound; assay type: physicochemical
# [2] = Equilibrium solubility of the compound at pH 6.8; assay type: physicochemical; conditions: buffer
# [3] = Intrinsic clearance in rat liver microsomes; assay type: ADME; conditions: read-out: CLH
# [4] = molecular target: T1, Orexin/Hypocretin receptor type 1 (Homo sapiens, UniProt O43613); experiment: Displacement of [125l]orexin A from human orexin 1 receptor expressed in CHO cells after 1 hr; assay type: cell-based
# T1 sequence (O43613 whole entry): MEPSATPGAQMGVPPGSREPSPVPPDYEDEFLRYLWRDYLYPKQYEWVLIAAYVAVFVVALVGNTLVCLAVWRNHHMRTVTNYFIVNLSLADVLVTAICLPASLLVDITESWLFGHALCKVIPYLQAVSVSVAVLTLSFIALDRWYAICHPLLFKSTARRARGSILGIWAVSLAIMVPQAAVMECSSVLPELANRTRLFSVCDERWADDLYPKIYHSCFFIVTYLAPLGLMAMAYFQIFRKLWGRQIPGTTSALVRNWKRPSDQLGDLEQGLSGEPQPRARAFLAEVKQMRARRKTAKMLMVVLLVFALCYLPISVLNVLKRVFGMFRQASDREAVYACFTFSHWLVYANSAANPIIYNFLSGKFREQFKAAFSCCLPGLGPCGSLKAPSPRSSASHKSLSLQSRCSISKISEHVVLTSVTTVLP
# Orexin receptor type 2 [5] = molecular target: T2, Orexin receptor type 2 (Homo sapiens, UniProt O43614); experiment: Displacement of [125l]orexin A from human orexin 2 receptor expressed in CHO cells after 1 hr; assay type: cell-based
# T2 sequence (O43614 whole entry): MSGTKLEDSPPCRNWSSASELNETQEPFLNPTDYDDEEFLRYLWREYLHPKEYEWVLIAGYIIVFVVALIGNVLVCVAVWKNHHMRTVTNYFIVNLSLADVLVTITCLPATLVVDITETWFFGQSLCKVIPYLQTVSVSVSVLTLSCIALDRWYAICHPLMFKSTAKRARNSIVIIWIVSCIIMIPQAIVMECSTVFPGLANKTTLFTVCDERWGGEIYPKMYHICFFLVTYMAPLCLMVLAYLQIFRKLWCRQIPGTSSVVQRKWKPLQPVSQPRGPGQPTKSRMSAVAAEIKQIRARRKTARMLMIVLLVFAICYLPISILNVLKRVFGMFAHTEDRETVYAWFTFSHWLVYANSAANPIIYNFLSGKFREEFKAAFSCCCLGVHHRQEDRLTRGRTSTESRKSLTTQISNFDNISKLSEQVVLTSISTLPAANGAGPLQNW
# [6] = Permeability of the compound by PAMPA; assay type: physicochemical
# MDR1 = experiment: Efflux ratio of permeability from basolateral to apical side over apical to basolateral side in MDCK cells expressing MDR1; assay type: ADME, cell-based, Canis lupus familiaris; conditions: dog
# Cytochrome P450 3A4 = Cytochrome P450 3A4 (Homo sapiens, UniProt P08684); experiment: Inhibition of CYP3A4 (unknown origin); assay type: ADME
# Chain of Cytochrome P450 3A4 (P08684 whole entry): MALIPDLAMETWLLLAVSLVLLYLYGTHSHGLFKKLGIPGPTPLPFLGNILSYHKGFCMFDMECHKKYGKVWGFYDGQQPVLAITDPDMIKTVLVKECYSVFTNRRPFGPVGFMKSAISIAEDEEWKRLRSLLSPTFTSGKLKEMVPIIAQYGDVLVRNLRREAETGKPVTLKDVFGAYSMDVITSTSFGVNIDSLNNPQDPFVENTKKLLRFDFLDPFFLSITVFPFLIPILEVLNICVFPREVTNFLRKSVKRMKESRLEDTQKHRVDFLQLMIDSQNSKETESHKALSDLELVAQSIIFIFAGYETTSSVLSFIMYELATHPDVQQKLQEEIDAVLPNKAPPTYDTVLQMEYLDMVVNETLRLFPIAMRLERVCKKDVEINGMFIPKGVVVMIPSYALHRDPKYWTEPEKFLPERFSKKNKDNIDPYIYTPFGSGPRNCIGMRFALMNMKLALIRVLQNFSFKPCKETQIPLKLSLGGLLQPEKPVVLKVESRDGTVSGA
# Cytochrome P450 2D6 = Cytochrome P450 2D6 (Homo sapiens, UniProt P10635); experiment: Inhibition of CYP2D6 (unknown origin); assay type: ADME
# Chain of Cytochrome P450 2D6 (P10635 whole entry): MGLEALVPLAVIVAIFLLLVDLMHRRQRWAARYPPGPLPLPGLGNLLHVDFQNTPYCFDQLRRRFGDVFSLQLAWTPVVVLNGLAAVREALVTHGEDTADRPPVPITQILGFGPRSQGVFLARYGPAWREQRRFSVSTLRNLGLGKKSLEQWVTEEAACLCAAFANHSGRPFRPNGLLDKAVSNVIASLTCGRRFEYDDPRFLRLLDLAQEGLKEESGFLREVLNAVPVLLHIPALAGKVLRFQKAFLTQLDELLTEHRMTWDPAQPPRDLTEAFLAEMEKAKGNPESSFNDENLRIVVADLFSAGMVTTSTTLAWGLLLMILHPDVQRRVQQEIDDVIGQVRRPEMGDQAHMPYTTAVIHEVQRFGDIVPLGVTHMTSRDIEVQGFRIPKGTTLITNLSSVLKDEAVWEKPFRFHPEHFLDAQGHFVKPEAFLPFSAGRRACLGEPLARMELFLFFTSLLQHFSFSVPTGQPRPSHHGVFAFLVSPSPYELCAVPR
# Cytochrome P450 2C9 = Cytochrome P450 2C9 (Homo sapiens, UniProt P11712); experiment: Inhibition of CYP2C9 (unknown origin); assay type: ADME
# Chain of Cytochrome P450 2C9 (P11712 whole entry): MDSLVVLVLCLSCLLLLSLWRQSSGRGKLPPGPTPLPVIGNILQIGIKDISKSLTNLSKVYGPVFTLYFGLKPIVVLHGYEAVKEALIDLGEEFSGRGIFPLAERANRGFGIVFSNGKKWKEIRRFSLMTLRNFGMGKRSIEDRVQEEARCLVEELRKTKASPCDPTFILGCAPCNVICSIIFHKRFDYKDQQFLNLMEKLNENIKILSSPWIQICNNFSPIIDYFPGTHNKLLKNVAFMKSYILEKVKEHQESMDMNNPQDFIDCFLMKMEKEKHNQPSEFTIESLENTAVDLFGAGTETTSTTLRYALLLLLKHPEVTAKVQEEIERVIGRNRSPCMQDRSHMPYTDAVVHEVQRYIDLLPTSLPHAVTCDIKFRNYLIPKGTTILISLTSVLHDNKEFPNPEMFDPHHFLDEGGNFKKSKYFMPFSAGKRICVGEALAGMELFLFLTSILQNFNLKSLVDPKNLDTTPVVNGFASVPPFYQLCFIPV
# [7] = Intrinsic clearance in human liver microsomes; assay type: ADME; conditions: read-out: CLH
# [8] = Intrinsic clearance in mouse liver microsomes; assay type: ADME; conditions: read-out: CLH
# [9] = Plasma protein binding in human; assay type: ADME, cell-free; conditions: read-out: PPB (converted)
# [10] = Plasma protein binding in mouse; assay type: ADME; conditions: read-out: PPB
# [11] = molecular target: Voltage-gated inwardly rectifying potassium channel KCNH2 (Homo sapiens, UniProt Q12809); experiment: Binding affinity to human ERG
# Chain of Voltage-gated inwardly rectifying potassium channel KCNH2 (Q12809 whole entry): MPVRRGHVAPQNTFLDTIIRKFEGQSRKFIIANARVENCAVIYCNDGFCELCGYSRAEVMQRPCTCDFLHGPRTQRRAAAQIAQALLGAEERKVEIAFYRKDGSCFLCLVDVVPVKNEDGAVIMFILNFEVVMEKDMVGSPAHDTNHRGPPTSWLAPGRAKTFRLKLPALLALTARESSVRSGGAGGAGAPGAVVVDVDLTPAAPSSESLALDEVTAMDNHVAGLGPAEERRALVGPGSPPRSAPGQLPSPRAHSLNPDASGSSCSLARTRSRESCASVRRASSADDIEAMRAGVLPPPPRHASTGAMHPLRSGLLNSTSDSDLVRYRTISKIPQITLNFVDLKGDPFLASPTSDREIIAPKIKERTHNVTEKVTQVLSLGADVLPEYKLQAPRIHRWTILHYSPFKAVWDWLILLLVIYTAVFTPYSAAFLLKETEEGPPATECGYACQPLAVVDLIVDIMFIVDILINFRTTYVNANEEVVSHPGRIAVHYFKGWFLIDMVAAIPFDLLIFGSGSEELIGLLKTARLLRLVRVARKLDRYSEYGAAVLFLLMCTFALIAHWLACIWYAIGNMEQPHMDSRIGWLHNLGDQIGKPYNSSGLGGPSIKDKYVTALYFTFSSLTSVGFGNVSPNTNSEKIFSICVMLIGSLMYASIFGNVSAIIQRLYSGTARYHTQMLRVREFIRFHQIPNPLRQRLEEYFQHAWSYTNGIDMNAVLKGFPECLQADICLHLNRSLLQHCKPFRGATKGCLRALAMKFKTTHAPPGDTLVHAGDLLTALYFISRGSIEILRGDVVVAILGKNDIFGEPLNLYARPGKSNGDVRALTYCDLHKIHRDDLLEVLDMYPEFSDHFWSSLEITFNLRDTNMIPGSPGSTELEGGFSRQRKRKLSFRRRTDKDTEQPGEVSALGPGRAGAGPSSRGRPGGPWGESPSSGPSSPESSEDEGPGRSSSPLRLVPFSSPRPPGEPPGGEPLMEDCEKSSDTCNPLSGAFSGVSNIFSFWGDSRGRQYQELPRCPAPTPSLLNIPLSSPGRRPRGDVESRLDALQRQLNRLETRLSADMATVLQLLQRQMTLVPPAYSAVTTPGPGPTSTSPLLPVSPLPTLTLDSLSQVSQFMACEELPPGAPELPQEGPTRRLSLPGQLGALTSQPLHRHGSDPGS
# [12] = Blood clearance in mouse at 1 mg/kg, iv administered through cassette dosing; assay type: ADME, organism-based
# [13] = Volume of distribution at steady state in mouse at 1 mg/kg, iv administered through cassette dosing; assay type: ADME, organism-based; conditions: in vivo, read-out: Vdss
# [14] = Terminal half life in mouse at 1 mg/kg, iv administered through cassette dosing; assay type: ADME, organism-based; conditions: in vivo, read-out: beta t1/2 (converted)
# Blood [15] = experiment: Dose-normalized Cmax in mouse blood at 3 mg/kg, po administered through cassette dosing; assay type: ADME, organism-based; conditions: in vivo
# Blood [16] = experiment: Dose-normalized AUC in mouse blood at 3 mg/kg, po administered through cassette dosing; assay type: ADME, organism-based; conditions: in vivo
# [17] = Oral bioavailability in mouse at 3 mg/kg administered through cassette dosing; assay type: ADME, organism-based; conditions: in vivo
# Plasma = experiment: Fraction unbound in mouse plasma; assay type: ADME, cell-free
# in vivo = conditions: mouse, brain / blood, po, 3 mg/kg
# Description: Ratio of drug level in brain to blood in mouse at 3 mg/kg, po at 1 hr post dose administered through cassette dosing
# Orexin receptor type 2 [18] = molecular target: T2, Orexin receptor type 2; experiment: Antagonist activity against human orexin 2 receptor after 1 hr by Ca2+ sensitive Fluo4-AM fluorescent dye-based FLIPR assay; assay type: functional
# [19] = Drug metabolism in mouse liver microsomes assessed as oxidation at benzylic position of amide; assay type: ADME
# Liver microsome [20] = experiment: Drug metabolism in human liver microsomes assessed as oxidation at benzylic position of amide; assay type: ADME
# [21] = Drug metabolism in mouse liver microsomes assessed as oxidation at phenyl ring in 3-position of core moiety; assay type: ADME
# Liver microsome [22] = experiment: Drug metabolism in human liver microsomes assessed as oxidation at phenyl ring in 3-position of core moiety; assay type: ADME
# Mus musculus [23] = species on record: Mus musculus; experiment: Drug metabolism in mouse assessed as oxidation at benzylic position of amide; assay type: ADME, organism-based; conditions: in vivo
# Mus musculus [24] = species on record: Mus musculus; experiment: Drug metabolism in mouse assessed as oxidation at phenyl ring in 3-position of core moiety; assay type: ADME, organism-based; conditions: in vivo
# [25] = molecular target: T1, Orexin/Hypocretin receptor type 1
# Description: Antagonist activity against human orexin 1 receptor after 1 hr by Ca2+ sensitive Fluo4-AM fluorescent dye-based FLIPR assay
smiles,measurement,setting,value
C[C@H](NC(=O)COc1cc(C(F)(F)F)c2c(-c3ccccc3)n[nH]c2n1)c1ccccc1,Ratio Ki,Homo sapiens,4.65
Cc1cc2c(cn1)[C@@H](NC(=O)COc1cc(C)c3c(C4CC4)nn(C)c3n1)CC2,logP,[1],3.5
same,solubility thermodynamic,[2],25 µM
same,microsomal CLint,[3],924 µL/min/mg
COc1ccc([C@H](C)NC(=O)COc2cc(C(F)(F)F)c3c(-c4ccccc4)nn(C)c3n2)cc1,Ratio Ki,Homo sapiens,7
same,Ki,[4],8 nM
same,Ki,Orexin receptor type 2 [5],4 nM
same,logP,[1],4.6
same,solubility thermodynamic,[2],< 4 µM
same,log(permeability),[6],-4
same,efflux ratio,MDR1,1
same,IC50,Cytochrome P450 3A4,8000 nM
same,IC50,Cytochrome P450 2D6,> 20000 nM
same,IC50,Cytochrome P450 2C9,5000 nM
same,microsomal CLint,[3],147 µL/min/mg
same,microsomal CLint,[7],190 µL/min/mg
same,microsomal CLint,[8],478 µL/min/mg
same,fraction unbound,[9],< 0.01
same,fraction unbound,[10],< 0.01
same,IC50,[11],> 30000 nM
same,clearance,[12],65 mL/min/kg
same,Vd,[13],2 L/kg
same,half-life,[14],66 min
same,Cmax/dose,Blood [15],4 nM
same,AUC/dose,Blood [16],17 nM·h
same,bioavailability,[17],3%
same,Fu,Plasma,< 1%
same,Kp at 1 h,in vivo,1.15
COc1ccc(CNC(=O)COc2cc(C(F)(F)F)c3c(-c4ccccc4)nn(C)c3n2)cc1,Ratio Ki,Homo sapiens,9.64
COc1ccc(C(C)NC(=O)COc2cc(C(F)(F)F)c3c(-c4ccccc4)nn(C)c3n2)cc1 (racemic),Ratio Ki,Homo sapiens,14.5
CC(NC(=O)COc1cc(C(F)(F)F)c2c(-c3ccccc3)nn(C)c2n1)c1ccccn1 (racemic),Ki,Orexin receptor type 2 [18],Not Active
COc1ccccc1C(C)NC(=O)COc1cc(C(F)(F)F)c2c(-c3ccccc3)nn(C)c2n1 (racemic),Ratio Ki,Homo sapiens,1.73
C[C@H](NC(=O)COc1cc(C(F)(F)F)c2c(-c3ccccc3)nn(C)c2n1)c1ccccc1,Ratio Ki,Homo sapiens,1.62
same,logP,[1],4.7
same,solubility thermodynamic,[2],< 4 µM
same,Drug metabolism,[19],metabolite_detected
same,Drug metabolism,Liver microsome [20],metabolite_detected
same,Drug metabolism,[21],metabolite_detected
same,Drug metabolism,Liver microsome [22],metabolite_detected
same,Drug metabolism,Mus musculus [23],metabolite_detected
same,Drug metabolism,Mus musculus [24],metabolite_detected
C[C@H](NC(=O)CNc1cc(C(F)(F)F)c2c(-c3ccccc3)nn(C)c2n1)c1ccccc1,Ratio Ki,Homo sapiens,0.31
Cc1ccc2c(n1)CC[C@@H]2NC(=O)COc1cc(C)c2c(C3CC3)nn(C)c2n1,Ratio Ki,Homo sapiens,4.95
same,clearance,[12],66 mL/min/kg
same,Vd,[13],0.4 L/kg
same,half-life,[14],18 min
same,Cmax/dose,Blood [15],115 nM
same,AUC/dose,Blood [16],106 nM·h
same,bioavailability,[17],16%
same,Kp at 1 h,in vivo,0.13
CC(NC(=O)COc1cc(C(F)(F)F)c2c(-c3ccccc3)nn(C)c2n1)c1cccnc1 (racemic),Ratio Ki,Homo sapiens,1.67
COc1ccc([C@@H](C)NC(=O)COc2cc(C(F)(F)F)c3c(-c4ccccc4)nn(C)c3n2)cc1,Ratio Ki,Homo sapiens,2.41
CC(NC(=O)COc1cc(C(F)(F)F)c2c(-c3ccccc3)nn(C)c2n1)c1ccccc1 (racemic),Ki,Orexin receptor type 2 [18]; read-out: Ki,78 nM
same,Ratio Ki,Homo sapiens,1.54
same,Ki,[4],88 nM
same,Ki,Orexin receptor type 2 [5],168 nM
same,Ki,[25],120 nM
Cc1ccc([C@H](C)NC(=O)COc2cc(C)c3c(-c4ncccn4)nn(C)c3n2)cc1,Ki,Orexin receptor type 2 [18]; read-out: Ki,5 nM
same,logP,[1],3.3
same,solubility thermodynamic,[2],43 µM
C[C@H](NC(=O)COc1cc(C(F)(F)F)c2c(-c3ccccn3)nn(C)c2n1)c1ccccc1,Ki,Orexin receptor type 2 [18]; read-out: Ki,367 nM
same,logP,[1],3.5
same,solubility thermodynamic,[2],40 µM
same,microsomal CLint,[3],924 µL/min/mg
same,Ki,[25],660 nM
Cc1nn(C)c(C)c1C(C)NC(=O)COc1cc(C(F)F)c2c(C3CC3)nn(C)c2n1 (racemic),logP,[1],2.8
same,solubility thermodynamic,[2],657 µM
same,microsomal CLint,[3],660 µL/min/mg
Cc1nn(C)c(C)c1[C@H](C)NC(=O)COc1cc(C(F)(F)F)c2c(-c3ccccc3)nn(C)c2n1,Ki,Orexin receptor type 2 [18]; read-out: Ki,10 nM
same,Ratio Ki,Homo sapiens,0.7
same,Ki,[25],7 nM
COc1cccc(C(C)NC(=O)COc2cc(C(F)(F)F)c3c(-c4ccccc4)nn(C)c3n2)c1 (racemic),Ratio Ki,Homo sapiens,0.77
Cc1nn(C)c(C)c1C(C)NC(=O)COc1cc(C(F)F)c2c(-c3ccccc3)nn(C)c2n1 (racemic),logP,[1],3.9
same,solubility thermodynamic,[2],248 µM
Cc1n[nH]c(C)c1[C@H](C)NC(=O)COc1cc(C(F)(F)F)c2c(-c3ccccc3)nn(C)c2n1,logP,[1],4.2
same,solubility thermodynamic,[2],< 4 µM
same,log(permeability),[6],-4.1
same,IC50,Cytochrome P450 3A4,> 20000 nM
same,IC50,Cytochrome P450 2D6,> 20000 nM
same,IC50,Cytochrome P450 2C9,> 20000 nM
same,microsomal CLint,[3],603 µL/min/mg
same,microsomal CLint,[7],433 µL/min/mg
same,microsomal CLint,[8],330 µL/min/mg
same,fraction unbound,[9],0.04
same,fraction unbound,[10],< 0.01
same,clearance,[12],20 mL/min/kg
same,Vd,[13],0.5 L/kg
same,half-life,[14],30 min
same,Cmax/dose,Blood [15],300 nM
same,AUC/dose,Blood [16],371 nM·h
same,bioavailability,[17],21%
same,Fu,Plasma,< 1%
Cc1ccc([C@H](C)NC(=O)COc2cc(C)c3c(-c4cnccn4)nn(C)c3n2)cc1,logP,[1],3.9
same,solubility thermodynamic,[2],115 µM
